Data taken from the NIST ThermoML archive (doi:10.1016/j.jct.2006.01.015).

Test: xn = mol fraction of the nth substance listed
Conditions: 101 kPa, Liquid

CNC(C)=O [N-methylacetamide] + CC#N
mass density [kg/m3]
Conditions | 293.15 K | 298.15 K | 303.15 K | 308.15 K | 313.15 K | 318.15 K
x2 = 0 | 958.4 | 954.2 | 950.1 | 945.9 | 941.7 | 937.6
x2 = 0.0637 | 951.5 | 947.2 | 942.9 | 938.6 | 934.3 | 930
x2 = 0.1232 | 944.8 | 940.3 | 935.9 | 931.4 | 927 | 922.6
x2 = 0.1926 | 936.5 | 931.9 | 927.3 | 922.8 | 918.2 | 913.7
x2 = 0.2665 | 927.2 | 922.5 | 917.8 | 913.1 | 908.4 | 903.7
x2 = 0.3244 | 919.5 | 914.7 | 909.9 | 905.1 | 900.3 | 895.5
x2 = 0.3702 | 913.2 | 908.3 | 903.4 | 898.5 | 893.6 | 888.7
x2 = 0.4365 | 903.5 | 898.5 | 893.5 | 888.5 | 883.5 | 878.5
x2 = 0.4925 | 894.7 | 889.6 | 884.5 | 879.4 | 874.3 | 869.3
x2 = 0.5412 | 886.6 | 881.4 | 876.2 | 871.1 | 865.9 | 860.8
x2 = 0.58 | 879.8 | 874.6 | 869.4 | 864.2 | 859 | 853.8
x2 = 0.6301 | 870.6 | 865.3 | 860.1 | 854.9 | 849.6 | 844.4
x2 = 0.6766 | 861.6 | 856.3 | 851 | 845.7 | 840.4 | 835.1
x2 = 0.7613 | 843.8 | 838.4 | 833 | 827.7 | 822.3 | 816.9
x2 = 0.8305 | 827.8 | 822.4 | 817 | 811.6 | 806.2 | 800.8
x2 = 0.9203 | 804.8 | 799.5 | 794.2 | 788.8 | 783.4 | 778
